Source: patent publication US8652463B1, “Dietary supplement to reduce the occurrence of migraines and treat their symptoms” (priority 2011, dated 2014)

Assays:
migraine headaches = conditions: for effect of preventive on migraine frequency: Patient two, before the regimen, ELAVIL 75 mg orally at bedtime, prednisone brief rounds
acute migraine = test: Patient case reports: acute (rescue/abortive) migraine therapy; format: in vivo, human; conditions: for success for acute migraine: historically, before the regimen
[1] = Patient three, history before the regimen

**Q.** With `CC(C)(C#N)c1cc(Cn2cncn2)cc(C(C)(C)C#N)c1` [ARMIDEX] as the compound, how does the “effect on migraines (adverse)” value (migraine headaches; human, in vivo) read?
**A.** more frequent, disabling, and less responsive

**Q.** For `CN(C)CCC=C1c2ccccc2CCc2ccccc21` [ELAVIL], which “effect of preventive on migraine frequency” value (shortened to “effect of preventive”) (migraine headaches) is on record?
**A.** did not reduce migraine frequency

**Q.** And the “side effects of migraine preventive” value (migraine headaches; human, in vivo)?
**A.** weight gain

**Q.** How did the “success for acute migraine” value (acute migraine; Patient one) turn out when `CN[C@@H]1CCc2[nH]c3ccc(C(N)=O)cc3c2C1` [FROVA] was run?
**A.** moderate success

**Q.** What about the “success as rescue drug” value (acute migraine; Patient one, while using the regimen) of the same compound?
**A.** with success

**Q.** What does the source list for `CNS(=O)(=O)Cc1ccc2[nH]cc(CCN(C)C)c2c1` [IMITREX]?
**A.** course of response for acute migraine rescue (acute migraine; [1]): worked well initially, but became ineffective; response for acute migraine rescue (acute migraine; [1]): poor response; response of migraines to acute therapy (acute migraine; Patient two, 100 mg orally, prior to breast cancer diagnosis, two to three migraines per month): responded well; response to rescue medication (acute migraine; Patient two, while using the regimen and ELAVIL): more responsive to a single dose

**Q.** `CC(C)C[C@H](CN)CC(=O)O` [LYRICA] was tested. Which “side effects of migraine preventive” value (migraine headaches; human, in vivo) did it give?
**A.** fluid retention and confusion

**Q.** For `CN(C)CCc1c[nH]c2ccc(Cn3cncn3)cc12` [MAXALT], which “response for acute migraine rescue” value (acute migraine; [1]) is on record?
**A.** poor response

**Q.** With `CC1(C)O[C@@H]2[C@@H](CO[C@@]3(COS(N)(=O)=O)OC(C)(C)O[C@@H]23)O1` [TOPAMAX] as the compound, how does the “migraine reduction and severity with preventive” value (migraine headaches; Patient one) read?
**A.** poor migraine reduction and severity

**Q.** What about the “effect of preventive” value (migraine headaches) of the same compound?
**A.** did not reduce migraine frequency

**Q.** What about the “side effects of migraine prevention” value (migraine headaches; human, in vivo) of the same compound?
**A.** cognitive dysfunction

**Q.** What about the “side effects of migraine preventive” value (migraine headaches; human, in vivo) of the same compound?
**A.** alopecia

**Q.** And the “tolerance of migraine preventive” value (migraine headaches; human, in vivo)?
**A.** poor tolerance

**Q.** For `O=C(c1ccccc1)c1ccc2n1CCC2C(=O)O` (stereo not shown) [TORADOL], which “response for acute migraine rescue” value (acute migraine; [1]) is on record?
**A.** poor response

**Q.** What about the “response to abortive therapy” value (acute migraine; human, in vivo, po) of the same compound?
**A.** good response

**Q.** How did the “side effects of migraine prevention” value (migraine headaches; human, in vivo) turn out when `Clc1ccc2nsnc2c1NC1=NCCN1` [ZANAFLEX] was run?
**A.** cognitive dysfunction

**Q.** For `CC(CN1c2ccccc2Sc2ccccc21)N(C)C` (stereo not shown) [phenegran], which “success for acute migraine” value (acute migraine; Patient one) is on record?
**A.** moderate success

**Q.** With `C[C@]12C=CC(=O)C=C1CC[C@@H]1[C@@H]2C(=O)C[C@@]2(C)[C@H]1CC[C@]2(O)C(=O)CO` [prednisone] as the compound, how does the “effect of preventive” value (migraine headaches) read?
**A.** short-lived migraine reduction

**Q.** For botulinum toxin [BOTOX], which “migraine remission / frequency” value (migraine headaches; human, in vivo) is on record?
**A.** complete remission of migraines to once per month
